Assay results reported in patent US20090131313A1, “LKKTET AND/OR LKKTNT PEPTIDE COMPOSITIONS AND METHODS FOR TREATING OR PREVENTING TISSUE DETERIORATION, INJURY OR DAMAGE” (REGENERX BIOPHARMACEUTICALS, INC., priority 2005, published 2009).

Columns and labels:
[1] = system: Human corneal epithelial cells; assay: annexin-based cell death (apoptosis) assay
Method: (§1) Human corneal epithelial cells at approximately 80% confluence were treated with 0%, 0.001%, 0.01%, or 0.1% BAK for 15 minutes. After 3 and 24 hours of recovery in culture medium, cell proliferation was measured using a calorimetric BrdU incorporation assay. Apoptosis was measured using a calorimetric annexin-based cell death assay. […] To further assess the ability of Tb4 to prevent apoptosis, corneal epithelial cells were treated with 0.01% BAK±Tβ4 over a 5 day time course.

[2] = system: Human corneal epithelial cells; assay: BrdU incorporation cell proliferation assay; format: cell-based; conditions: 1 mcg/ml Tβ4, 3 and 24 hour time points
Method: as §1

benzalkonium chloride [BAK, reference compound]
corneal epithelial cell apoptosis compared to control ([1]; 0.001%, 0.01% or 0.1% BAK for 15 minutes, 3 and 24 hours recovery): increased

Thymosin beta 4 (SDKPDMAEIEKFDKSKLKKTETQEKNPLPSKETIEQEKQAGES; Thymosin beta-4; UniProt P62328 2-44, looked up) [Tβ4]
cell proliferation of BAK-treated cells in the presence of Tβ4 [2]: not promoted | apoptosis of BAK-treated cells in the presence of Tβ4 ([1]; 1 mcg/ml Tβ4, BAK-treated cells, 3 and 24 hour time points): not inhibited | apoptosis compared to cells cultured in medium alone ([1]; Tβ4-treated cells, 5 days in culture): decreased apoptosis
